Patent publication US20190105337A1, “METHODS OF TREATING BACTERIAL INFECTIONS” (priority 2015, published 2019)

Experiments:
[1] = human, in vivo
Experimental: Forty one subjects were enrolled in 5 groups based on their degree of renal insufficiency. The five cohorts included: patients with normal renal function (CrCl≥90 ml/min), mild renal impairment (CrCl 60-89 ml/min), moderate renal impairment (CrCl 30-<60 ml/min), severe renal impairment (CrCl<30 ml/min, and patients with end stage renal disease requiring hemodialysis. Patients on renal replacement therapy other than standard hemodialysis (including continuous veno-venous hemofiltration, continuous veno-venous hemodialysis and continuous renal replacement therapy) were not studied.

[2] = Plasma protein binding; format: in vitro ADME
[3] = Example 6: noncompartmental plasma pharmacokinetics after third dose of the Combination (2 g meropenem/2 g Compound I q8h); conditions: for Vss / clearance / Cmax / Tmax: Compound I 2 g q8h; for AUC(0-t) / clearance / Cmax / Tmax / half-life: both, human, plasma, intravenous; for AUC(0-t): AUC0-8, Compound I 2 g q8h; for clearance: CL; for half-life: t1/2, Compound I 2 g q8h
Experimental: (§1) A total of twenty-five (n=25) male and female subjects who met the study entry criteria and completed all phases of the pharmacokinetic study were included in this pharmacokinetic analysis. […] Blood samples were collected to measure drug concentrations in plasma prior to (time 0), and at 1.5, 2.95, 3.083, 3.25, 3.5, 4, 6, and 8 hours after the start of a 3-hour intravenous infusion of the third combination dose.
(§2) (Reports MC14B-0013, MC14B-0015, MC14I-011, and MC14I-0012). The urea concentrations in plasma and BAL were performed with a microplate-based method with an 0-phthalaldehyde chromogenic solution at MicroConstants, Inc., San Diego, Calif.
Peak plasma concentration (Cmax) and time to Cmax (Tmax) were read from the observed plasma concentration-time profile after the start of the intravenous infusion of the third Combination dose. Area under the plasma concentration-time curve over 8 hours (AUC0-8) after the third dose was calculated with the linear-log trapezoidal rule (WinNonlin®, version 6.3, Pharsight Corporation, Cary, N.C.). The elimination rate constant (β) was determined by nonlinear least-squares regression. Elimination half-life (t½) was calculated by dividing β into the natural logarithm of two.

[4] = clinical; conditions: both, human, in vivo
Experimental: as §1
Urea has been commonly used as an endogenous marker to estimate the apparent volume of ELF. Blood samples to determine plasma urea concentrations were obtained just prior to scheduled bronchoscopy. Aliquots of BAL were obtained to determine urea concentrations in BAL and cell count with differential. The standardized bronchoscopy with BAL procedure for the collection of intrapulmonary samples has been previously described in the references listed below.
as §2
The calculations of ELF volume and drug concentrations in ELF and AM were performed with BAL supernatant and pulmonary (alveolar) cells (“cell pellet”) from aspirates recovered from the 2nd, 3rd, and 4th instillations (BAL2). The concentration of drug (ABXELF) in the epithelial lining fluid (ELF) was determined as follows:
[…]
VELF is derived from the following:
where UreaBAL is the concentration of urea in BAL fluid and UreaP is the concentration of urea in plasma.
The concentration of drug (ABXAM) in the alveolar cells (AC) was determined as follows:
Differential cell count was performed to determine the number of macrophages present. A mean macrophage cell volume of 2.42 μl/106 cells was used in the calculations for volume of alveolar cells in the pellet suspension.
The concentration ratios of ELF and AM to the simultaneous plasma concentrations were calculated for each subject and summarized for each group at each sampling time. […] The 8-hour sampling time was also used as a value at time zero for determining the area term of plasma, ELF, and AM. The AUC0-8 for each matrix was determined with the linear trapezoidal method. The ratio of AUC0-8 of ELF to plasma and AM to plasma were calculated.

[5] = In vitro hollow fiber model: pharmacokinetic parameters of meropenem and Compound I in the central compartment (Tables E, F); conditions: combination Compound I/meropenem (Table F)
Experimental: In Vitro PK-PD Model: Six medium sized hollow-fiber cartridges (FiberCell Systems) were used per experiment. Three strains studied in duplicate were used for each experiment. Log-phase cells were inoculated and incubated for 2 hours prior to the start of treatment to achieve about 10^8 CFU/mL. Target PK parameters are listed in Tables E and F. The exposures were based on the published literatures disclosed in Example 2. Samples were collected from the central compartment for the determination of drug concentrations over a 32 hour period and were analyzed using an LC-MS/MS method.

[6] = AM concentration at time of bronchoscopy and BAL
[7] = ELF concentration at time of bronchoscopy and BAL
[8] = Plasma concentration at time of bronchoscopy and BAL
[9] = Ratio AM to Plasma (total plasma concentration)
[10] = Ratio ELF to Plasma (total plasma concentration)

## O=C(O)C[C@@H]1CC[C@H](NC(=O)Cc2cccs2)B(O)O1 [Compound I]
[1]
  non-renal clearance: no measurable non-renal clearance
[2]
  fraction unbound: 0.67
[3]; 1.5-hour BAL Sampling Group
  Vss: 18.6 ± 2.3 L
  AUC(0-t): 184 ± 38.6 µg·h/mL
  clearance: 188 mL/min
  Cmax: 56100 ± 13000 ng/mL
  Tmax: 2.95 ± 0.01 h
  half-life: 1.18 ± 0.08 h
[3]; 3.25-hour BAL Sampling Group
  Vss: 17.3 ± 2.3 L
  AUC(0-t): 210 ± 32.2 µg·h/mL
  clearance: 162 mL/min
  Cmax: 59700 ± 5800 ng/mL
  Tmax: 3 ± 0.07 h
  half-life: 1.26 ± 0.23 h
[3]; 4-hour BAL Sampling Group
  Vss: 16.9 ± 0.9 L
  AUC(0-t): 214 ± 35.4 µg·h/mL
  clearance: 158 mL/min
  Cmax: 60100 ± 5700 ng/mL
  Tmax: 2.98 ± 0.06 h
  half-life: 1.34 ± 0.26 h
[3]; 6-hour BAL Sampling Group
  Vss: 18.1 ± 3.9 L
  AUC(0-t): 216 ± 33.7 µg·h/mL
  clearance: 158 mL/min
  Cmax: 60900 ± 9700 ng/mL
  Tmax: 3 ± 0.07 h
  half-life: 1.37 ± 0.27 h
[3]; 8-hour BAL Sampling Group
  Vss: 17.0 ± 3.3 L
  AUC(0-t): 198 ± 36.6 µg·h/mL
  Cmax: 57900 ± 8800 ng/mL
  Tmax: 2.98 ± 0.06 h
  half-life: 1.18 ± 0.16 h
[3]; All Subjects
  Vss: 17.6 ± 2.6 L
  AUC(0-t): 204 ± 34.6 µg·h/mL
  clearance: 168 mL/min
  Cmax: 59000 ± 8400 ng/mL
  Tmax: 2.98 ± 0.06 h
  half-life: 1.27 ± 0.21 h
[4]; [6]
  concentration at 1.5 h: 2710 ± 1440 ng/mL
  concentration at 3.25 h: 8790 ± 9430 ng/mL
  concentration at 4 h: 5510 ± 3150 ng/mL
  concentration at 6 h: 27600 ± 39600 ng/mL
  concentration at 8 h: 4400 ± 4100 ng/mL
[4]; AUC0-8 based on mean ELF concentrations
  AUC(0-t): 105 µg·h/mL
[4]; AUC0-8 based on median ELF concentrations
  AUC(0-t): 96.7 µg·h/mL
[4]; [7]
  concentration at 1.5 h: 18600 ± 3800 ng/mL
  concentration at 3.25 h: 26100 ± 1100 ng/mL
  concentration at 4 h: 15700 ± 3400 ng/mL
  concentration at 6 h: 8030 ± 5800 ng/mL
  concentration at 8 h: 2610 ± 1350 ng/mL
[4]; [8]
  concentration at 1.5 h: 42100 ± 5000 ng/mL
  concentration at 3.25 h: 51100 ± 6800 ng/mL
  concentration at 4 h: 28200 ± 5300 ng/mL
  concentration at 6 h: 10800 ± 2800 ng/mL
  concentration at 8 h: 2740 ± 1120 ng/mL
[4]; [9]
  Kp at 1.5 h: 0.062 ± 0.029
  Kp at 3.25 h: 0.165 ± 0.163
  Kp at 4 h: 0.191 ± 0.101
  Kp at 6 h: 2.58 ± 3.57
  Kp at 8 h: 1.6 ± 1.1
[4]; [10]
  Kp at 1.5 h: 0.45 ± 0.123
  Kp at 3.25 h: 0.508 ± 0.096
  Kp at 4 h: 0.57 ± 0.159
  Kp at 6 h: 0.705 ± 0.329
  Kp at 8 h: 1.01 ± 0.391
[4]; intrapulmonary penetration based on AUC0-8 of ELF and total plasma concentrations
  Kp: ~0.53
[4]; intrapulmonary penetration, unbound plasma concentrations
  Kp: 0.79
[4]; mean ratio of AM to plasma concentration
  Kp at 6 h: 2.58 ± 3.57
[4]; mean ratios of AM to simultaneous plasma concentration (range)
  Kp: 0.062 to 2.58
[4]; mean ratios of ELF to simultaneous plasma concentrations (range)
  Kp: 0.45 to 1.01
[4]; ratio of ELF to total plasma concentrations based on mean AUC0-8
  Kp: 0.53
[4]; ratio of ELF to total plasma concentrations based on median AUC0-8
  Kp: 0.48
[4]; ratio of ELF to unbound plasma concentrations based on mean AUC0-8
  Kp: 0.79
[4]; ratio of ELF to unbound plasma concentrations based on median AUC0-8
  Kp: 0.72
[5]
  AUC, Average Compound I Actual: 105.3 µg·h/mL
  Cmax, Average Compound I Actual: 26400 ng/mL
  Half-Life, Average Compound I Actual: 1.5 h
